Among the data in patent US20230079448A1, “DEVICES AND METHODS FOR NEGATIVE PRESSURE THERAPY” (APPLIED TISSUE TECHNOLOGIES LLC, priority 2020, published 2023) are MIC and Drug activity values, retold here.

Data set [1] has as its system common bacteria. Particulars: typical value; cited from earlier work.
Data set [2] in a line: Activity of gel-based therapeutics after short-term storage. Format: physicochemical. The following applies: 0.5% (agarose) hydrogel. The source says: According to Table 1, gel-therapeutic agent preparations comprising an antibiotic and a 0.5% (agarose) hydrogel may be stable for up to one week. Drugs dissolve passively into the gel and stay stable over time. In some embodiments, the gel-therapeutic agent preparation may further comprise saline. The gel may be biocompatible, meaning that it is structurally similar to the extracellular matrix in tissues. The gel may be flowable, allowing, for example, casting into a mold or injection via needle through a port. The loading of the […] agent preparation in the device may allow consistent and uniform contact with the skin even with patient movement, maintaining continuous delivery of the therapeutic agent to the underlying tissue. The gel-therapeutic agent preparation may prevent loss of the therapeutic agent in the event of a minor leak in the adhesive of the sealing portion of the device.

Consider `CN[C@H](CC(C)C)C(=O)N[C@H]1C(=O)N[C@@H](CC(N)=O)C(=O)N[C@H]2C(=O)N[C@H]3C(=O)N[C@H](C(=O)N[C@H](C(=O)O)c4cc(O)cc(O)c4-c4cc3ccc4O)[C@H](O)c3ccc(c(Cl)c3)Oc3cc2cc(c3O[C@@H]2O[C@H](CO)[C@@H](O)[C@H](O)[C@H]2O[C@H]2C[C@](C)(N)[C@H](O)[C@H](C)O2)Oc2ccc(cc2Cl)[C@H]1O` [vancomycin], for which, in data set [1], the MIC entry is reported as “around 2 micrograms per mL or cm^3”.

With Gentamicin, the Drug activity came to 2.41 µg/mL in data set [2] (after 3 days storage) and 2.04 µg/mL in data set [2] (after 7 days storage). Besides, in data set [1], the MIC entry is listed as “around 2 micrograms per mL or cm^3”.
